# Laboratory results as given in patent EP1986011A2, “Peptide epitopes recognized by disease promoting CD4+ T lymphocytes” (MGI PHARMA Biologics, Inc., priority 1999, dated 2008).
# Columns and labels:
# [1] = tested on: isolated HLA-DR4 molecules; assay: Binding inhibition assay: inhibition of binding of biotinylated invariant chain indicator peptide; design: species or system human; conditions: HLA-DR4 10 µg/ml, indicator peptide 1 µM, varying concentrations of test peptide, overnight at room temperature (Fig. 3)
# Method: Synthetic peptides with amino acid sequences based on the 6 core regions identified by the IMF were tested for their ability to bind to isolated HLA-DR4 molecules in a binding inhibition assay performed essentially as previously described [Chicz et al. (1997), J. Immunol. 159: 4935-4942]. In brief, aliquots of immunopurified preparation of HLA-DR4 (final concentration of 10 µg/ml) were incubated with a biotinylated HLA-DR4 binding peptide (consisting of residues 98-117 of class II MHC invariant chain) ("the indicator peptide") (1 µM) and varying concentrations of the test peptides in 0.2 ml tubes. After an overnight incubation at room temperature, the contents of each tube were transferred to a well of a 96-well plastic microtiter plate precoated with anti-HLA-DR4 antibody. The microtiter plates were rocked for 60 min at room temperature and unbound material was removed by rigorous washing. The relative amount of bound standard peptide in each well was determined by measuring color development after addition of streptavidin-conjugated alkaline phosphatase, washing, and adding a chromogenic alkaline phosphatase substrate.
# In order to test for the ability of the 6 consensus peptides representing the 6 core regions defined by the IMF described in Example 1, a binding inhibition assay was performed (Fig. 3). […]
# peripheral blood T cells = assay: T cell proliferation assay (Epitope Verification) with synthetic IA-2 peptides; assay type: cell-based, human; design: key: significant ("POS" in Table 2) proliferative responses; conditions: HLA-DR4 IDDM patient DC (I), DRB1 genotype 0403.0405; peptide 10 µg/ml, 5 days; significant = SI >2.0 and >40% wells positive
# Method: To establish that peptide epitopes identified are relevant to IDDM (i.e., that they are recognized by CD4+ T cells of patients with IDDM or pre-IDDM expressing the DR4 molecule but not by non-diabetic controls also expressing the DR4 molecule), T cell proliferation assays were carried out using synthetic peptides having amino acid sequences based upon the peptides identified by mass spectrometry to be derived from IA-2ic. Peptides were synthesized using Fmoc chemistry with an Applied Biosystems SYNERGY peptide synthesizer and purified by preparative RP-HPLC on a Waters 2690 Alliance system equipped with a Radial Compression Module. […] Peripheral blood mononuclear cells from recent onset IDDM patients (<6 months from diagnosis) and healthy controls expressing the appropriate HLA DR4 molecules were separated by density gradient centrifugation and co-cultured in wells of 96-well U-bottom plates with peptides at a concentration of 10 µg/ml for 5 days in 150 µl RPMI 1640/10% pooled normal AB serum, followed by pulsing with 0.5 µCi [^3H]-thymidine/well and harvesting onto filters for radioactivity counting measured in counts per minute (cpm). […] Results were expressed as a stimulation index (SI) which is the ratio of the cpm obtained from cultures containing peptide to the cpm obtained from cultures without peptide (mean cpm of 12 wells in each case). […]
Substance,binding to HLA-DR4 molecules [1],T cell response to IA-2 peptide (peripheral blood T cells)
Ii-c: a peptide consisting of residues 98-117 of class II MHC invariant chain (PKPPKPVSKMRMATPLLMQA) [reference compound],bind with intermediate avidity,
"LAKEWQALCAYQAEPNTCATAQGE [709-732, peptide consisting of residues 709-732 of IA-2]",bind strongly,POS
